Literature values as cited in PubChem BioAssay AID1259409 (Chemical Carcinogenesis Research Information System (CCRIS), 2018).

System: rodent chemically induced tumor inhibition, incidence and multiplicity
Assay: CCRIS tumor inhibitor studies

SMILES: Oc1cccc(O)c1
- tumour outcome (control, treated, inhibition, significance) (Carcinogen: 3,2'-DIMETHYL-4-AMINOBIPHENYL, 13394-86-0, Dose [Inhibitor]: 0, 0.8% IN BASAL DIET BEGINNING POST CARCINOGEN TREATMENT AND CONTINUING FOR 40 WK (STUDY DURATION: 60 WK), Route [Inhibitor]: ORAL, Species: RAT, Strain/Sex: F344/MALE, Target Tissue: Type of Lesion: LARGE INTESTINE: ADENOMA AND ADENOCARCINOMA, Dose [Carcinogen]: 50 MG/KG 1/2 WK FOR 20 WK TO RATS MAINTAINED ON ETHINYL ESTRADIOL CONTAINING DIET (0.75 PPM) FOR 1 WK CYCLED WITH ETHINY, Promoter: ETHINYL ESTRADIOL, 57-63-6): 3/10 (30%), 6/10 (60%), -100%, not significant
- tumour outcome (control, treated, inhibition, significance) (Carcinogen: 3,2'-DIMETHYL-4-AMINOBIPHENYL, 13394-86-0, Dose [Inhibitor]: 0, 0.8% IN BASAL DIET BEGINNING POST CARCINOGEN TREATMENT AND CONTINUING FOR 40 WK (STUDY DURATION: 60 WK), Route [Inhibitor]: ORAL, Species: RAT, Strain/Sex: F344/MALE, Target Tissue: Type of Lesion: PANCREAS: ACINAR CELL NODULE, Dose [Carcinogen]: 50 MG/KG 1/2 WK FOR 20 WK TO RATS MAINTAINED ON ETHINYL ESTRADIOL CONTAINING DIET (0.75 PPM) FOR 1 WK CYCLED WITH ETHINY, Promoter: ETHINYL ESTRADIOL, 57-63-6): 4/10 (40%), 3/10 (30%), 25%, not significant
- tumour outcome (control, treated, inhibition, significance) (Carcinogen: 3,2'-DIMETHYL-4-AMINOBIPHENYL, 13394-86-0, Dose [Inhibitor]: 0, 0.8% IN BASAL DIET BEGINNING POST CARCINOGEN TREATMENT AND CONTINUING FOR 40 WK (STUDY DURATION: 60 WK), Route [Inhibitor]: ORAL, Species: RAT, Strain/Sex: F344/MALE, Target Tissue: Type of Lesion: PREPUTIAL GLAND: ADENOMA AND CARCINOMA, Dose [Carcinogen]: 50 MG/KG 1/2 WK FOR 20 WK TO RATS MAINTAINED ON ETHINYL ESTRADIOL CONTAINING DIET (0.75 PPM) FOR 1 WK CYCLED WITH ETHINY, Promoter: ETHINYL ESTRADIOL, 57-63-6): 5/10 (50%), 3/10 (30%), 40%, not significant
- tumour outcome (control, treated, inhibition, significance) (Carcinogen: 3,2'-DIMETHYL-4-AMINOBIPHENYL, 13394-86-0, Dose [Inhibitor]: 0, 0.8% IN BASAL DIET BEGINNING POST CARCINOGEN TREATMENT AND CONTINUING FOR 40 WK (STUDY DURATION: 60 WK), Route [Inhibitor]: ORAL, Species: RAT, Strain/Sex: F344/MALE, Target Tissue: Type of Lesion: PROSTATE: CARCINOMA, Dose [Carcinogen]: 50 MG/KG 1/2 WK FOR 20 WK TO RATS MAINTAINED ON ETHINYL ESTRADIOL CONTAINING DIET (0.75 PPM) FOR 1 WK CYCLED WITH ETHINY, Promoter: ETHINYL ESTRADIOL, 57-63-6): 5/10 (50%), 3/10 (30%), 40%, not significant
- tumour outcome (control, treated, inhibition, significance) (Carcinogen: 3,2'-DIMETHYL-4-AMINOBIPHENYL, 13394-86-0, Dose [Inhibitor]: 0, 0.8% IN BASAL DIET BEGINNING POST CARCINOGEN TREATMENT AND CONTINUING FOR 40 WK (STUDY DURATION: 60 WK), Route [Inhibitor]: ORAL, Species: RAT, Strain/Sex: F344/MALE, Target Tissue: Type of Lesion: SMALL INTESTINE: ADENOMA AND ADENOCARCINOMA, Dose [Carcinogen]: 50 MG/KG 1/2 WK FOR 20 WK TO RATS MAINTAINED ON ETHINYL ESTRADIOL CONTAINING DIET (0.75 PPM) FOR 1 WK CYCLED WITH ETHINY, Promoter: ETHINYL ESTRADIOL, 57-63-6): 2/10 (20%), 2/10 (20%), 0%, not significant
- tumour outcome (control, treated, inhibition, significance) (Carcinogen: 3,2'-DIMETHYL-4-AMINOBIPHENYL, 13394-86-0, Dose [Inhibitor]: 0, 0.8% IN BASAL DIET BEGINNING POST CARCINOGEN TREATMENT AND CONTINUING FOR 40 WK (STUDY DURATION: 60 WK), Route [Inhibitor]: ORAL, Species: RAT, Strain/Sex: F344/MALE, Target Tissue: Type of Lesion: SUBCUTIS: TUMOR, Dose [Carcinogen]: 50 MG/KG 1/2 WK FOR 20 WK TO RATS MAINTAINED ON ETHINYL ESTRADIOL CONTAINING DIET (0.75 PPM) FOR 1 WK CYCLED WITH ETHINY, Promoter: ETHINYL ESTRADIOL, 57-63-6): 1/10 (10%), 1/10 (10%), 0%, not significant
- tumour outcome (control, treated, inhibition, significance) (Carcinogen: 3,2'-DIMETHYL-4-AMINOBIPHENYL, 13394-86-0, Dose [Inhibitor]: 0, 0.8% IN BASAL DIET BEGINNING POST CARCINOGEN TREATMENT AND CONTINUING FOR 40 WK (STUDY DURATION: 60 WK), Route [Inhibitor]: ORAL, Species: RAT, Strain/Sex: F344/MALE, Target Tissue: Type of Lesion: ZYMBAL GLAND: ADENOMA OR CARCINOMA, Dose [Carcinogen]: 50 MG/KG 1/2 WK FOR 20 WK TO RATS MAINTAINED ON ETHINYL ESTRADIOL CONTAINING DIET (0.75 PPM) FOR 1 WK CYCLED WITH ETHINY, Promoter: ETHINYL ESTRADIOL, 57-63-6): 2/10 (20%), 2/10 (20%), 0%, not significant
- tumour outcome (control, treated, inhibition, significance) (Carcinogen: BENZO[A]PYRENE, 50-32-8, Dose [Inhibitor]: 10 MG IN 0.1 ML ACETONE 3/WK ADMINISTERED SIMULTANEOUSLY WITH CARCINOGEN FOR DU RATION OF STUDY (STUDY DURATION: 368 D), Route [Inhibitor]: DERMAL, Species: MOUSE, Strain/Sex: ICR/FEMALE, Target Tissue: Type of Lesion: SKIN: PAPILLOMA, Dose [Carcinogen]: 5 UG IN 0.1 ML ACETONE THAT ALSO CONTAINED AGENT 3/WK FOR DURATION OF STUDY, Promoter: NONE USED): 14/50 (28%), 5/50 (10%), 64%, not calculated
- tumour outcome (control, treated, inhibition, significance) (Carcinogen: BENZO[A]PYRENE, 50-32-8, Dose [Inhibitor]: 10 MG IN 0.1 ML ACETONE 3/WK ADMINISTERED SIMULTANEOUSLY WITH CARCINOGEN FOR DU RATION OF STUDY (STUDY DURATION: 368 D), Route [Inhibitor]: DERMAL, Species: MOUSE, Strain/Sex: ICR/FEMALE, Target Tissue: Type of Lesion: SKIN: SQUAMOUS CARCINOMA, Dose [Carcinogen]: 5 UG IN 0.1 ML ACETONE THAT ALSO CONTAINED AGENT 3/WK FOR DURATION OF STUDY, Promoter: NONE USED): 10/50 (20%), 2/50 (4%), 80%, not calculated
- tumour outcome (control, treated, inhibition, significance) (Carcinogen: N-BIS(2-HYDROXYPROPYL)NITROSAMINE, 53609-64-6, Dose [Inhibitor]: 0, 0.8% IN DIET FOR 30 WK BEGINNING POST CARCINOGEN (STUDY DURATION: 32 WK), Route [Inhibitor]: ORAL, Species: RAT, Strain/Sex: F344/MALE, Target Tissue: Type of Lesion: LUNG: CARCINOMA, Dose [Carcinogen]: 0.1% IN DRINKING WATER FOR 2 WK, Promoter: NONE USED): 45%, 40%, 11%, not calculated
- tumour outcome (control, treated, inhibition, significance) (Carcinogen: N-BIS(2-HYDROXYPROPYL)NITROSAMINE, 53609-64-6, Dose [Inhibitor]: 0, 0.8% IN DIET FOR 30 WK BEGINNING POST CARCINOGEN TREATMENT (STUDY DURATION: 32 WK), Route [Inhibitor]: ORAL, Species: RAT, Strain/Sex: F344/MALE, Target Tissue: Type of Lesion: BLADDER: ADENOMA, Dose [Carcinogen]: 0.1% IN DRINKING WATER FOR 2 WK, Promoter: NONE USED): 5%, 10%, -100%, not calculated
- tumour outcome (control, treated, inhibition, significance) (Carcinogen: N-BIS(2-HYDROXYPROPYL)NITROSAMINE, 53609-64-6, Dose [Inhibitor]: 0, 0.8% IN DIET FOR 30 WK BEGINNING POST CARCINOGEN TREATMENT (STUDY DURATION: 32 WK), Route [Inhibitor]: ORAL, Species: RAT, Strain/Sex: F344/MALE, Target Tissue: Type of Lesion: KIDNEY: TUMOR, Dose [Carcinogen]: 0.1% IN DRINKING WATER FOR 2 WK, Promoter: NONE USED): 10%, 35%, -250%, not calculated
